Values of other authors as cited in article PMC11859340, “The Therapeutic Potential of Spirooxindoles in Cancer: A Focus on p53–MDM2 Modulation” (Pharmaceuticals, 2025).
Where two headings read alike, the source gives them in different places. Values belong to the compound of their own block, whether it stands above or below them.

How the values were obtained:
MCF7 = tested on: MCF7; parameters: method as in PMID 28987608; settings: MTT; read-out: IC50 against MCF7
MDA-MB-231 (breast) = tested on: MDA-MB-231 (breast); parameters: method as in PMID 28987608; settings: MTT; read-out: IC50 against MDA-MB-231
HCT116 (p53^+/+) = tested on: HCT116 (p53^+/+); parameters: method as in PMID 28987608; settings: MTT; read-out: IC50 against HCT116 (p53^+/+)
HCT116 (p53^−/−) = tested on: HCT116 (p53^−/−); parameters: method as in PMID 28987608; settings: MTT; read-out: IC50 against HCT116 (p53^−/−)
[1] = tested on: HEK 293T (embryonic kidney non-cancer); parameters: method as in PMID 28987608; settings: MTT, read-out: IC50 against HEK 293T
[2] = tested on: p53-wild-type MCF7 (breast cancer) cell line; parameters: method as in PMID 33725632
MCF7 (breast) [3] = tested on: MCF7 (breast); parameters: method as in doi:10.31788/RJC.2023.1638506; settings: MTT; read-out: IC50 against MCF7
HeLa (cervical) = tested on: HeLa (cervical); parameters: method as in doi:10.31788/RJC.2023.1638506; settings: MTT; read-out: IC50 against HeLa
[4] = tested on: MCF7 (breast) cancer cell line; parameters: method as in doi:10.1016/j.molstruc.2023.137026
MCF7 (breast) [5] = tested on: MCF7 (breast); parameters: method as in PMID 26256638; settings: MTT; read-out: IC50 against MCF7
MDA-MB-231 = tested on: MDA-MB-231; parameters: method as in doi:10.3390/separations10040225; settings: MTT; read-out: IC50 against MDA-MB-231
PC3 = tested on: PC3; parameters: method as in doi:10.3390/separations10040225; settings: MTT; read-out: IC50 against PC3
HCT116 (colon) [6] = tested on: HCT116 (colon); parameters: method as in PMID 30802707; settings: MTT; read-out: IC50 against HCT116
HepG2 (liver) [7] = tested on: HepG2 (liver); parameters: method as in PMID 30802707; settings: MTT; read-out: IC50 against HepG2
PC-3 (prostate) = tested on: PC-3 (prostate); parameters: method as in PMID 30802707; settings: MTT; read-out: IC50 against PC-3
HCT116 (colon) [8] = tested on: HCT116 (colon); parameters: method as in PMID 30508794; settings: MTT; read-out: IC50 against HCT116
HepG2 (liver) [9] = tested on: HepG2 (liver); parameters: method as in PMID 30508794; settings: MTT; read-out: IC50 against HepG2
[10] = parameters: method as in PMID 30508794; settings: MTT; read-out: IC50 against PC3
PC3 (prostate) = tested on: PC3 (prostate); parameters: method as in PMID 34684885; settings: MTT; read-out: IC50 against PC3

IC50 (MCF7): 9.5 ± 3.1 µM
IC50 (MDA-MB-231 (breast)): 7.6 ± 2.4 µM
IC50 (HCT116 (p53^+/+)): 13.9 ± 1.1 µM
IC50 (HCT116 (p53^−/−)): 17.7 ± 1.3 µM
IC50 [1]: 21.4 ± 7.4 µM
Compound: O=C1Nc2ccc(Br)cc2C12N(c1ccccc1Cl)N=C(c1cccc(Cl)c1)N2c1cccc(Cl)c1 (centres unmarked)

IC50 (MCF7): 9.8 ± 1.5 µM
IC50 (MDA-MB-231 (breast)): 8.9 ± 1.9 µM
IC50 (HCT116 (p53^+/+)): 16.3 ± 0.2 µM
IC50 (HCT116 (p53^−/−)): 17.9 ± 0.6 µM
IC50 [1]: > 100 µM
Compound: O=C1Nc2ccc(Cl)cc2C12N(c1ccccc1)N=C(c1ccccc1)N2c1cccc(Cl)c1 (centres unmarked)

IC50 ([2]; absence of Fer-1): 0.17 µM
IC50 ([2]; presence of Fer-1): 13.7 µM
Compound: Cc1noc([C@@H]2[C@@H](c3ccccc3)[C@H](C(F)(F)F)N[C@@]23C(=O)Nc2cc(Br)ccc23)c1[N+](=O)[O-]

IC50 ([2]; absence of Fer-1): 0.12 µM
IC50 ([2]; presence of Fer-1): 13.5 µM
Compound: Cc1noc([C@@H]2[C@@H](c3ccccc3)[C@H](C(F)(F)F)N[C@@]23C(=O)Nc2cc(Cl)ccc23)c1[N+](=O)[O-]

Compound: CC(C)(C)OC(=O)N1CCC(c2nc(/C=C3\CCC4(C3=O)C3CCCCN3C3(C(=O)Nc5ccccc53)C4c3csc(C4CCN(C(=O)OC(C)(C)C)CC4)n3)cs2)CC1 (centres unmarked)
IC50 (MCF7 (breast) [3]): 63.4 µM
IC50 (HeLa (cervical)): 76.3 µM

Compound: CCCN1C(=O)[C@]2(N[C@@H](c3ccc(F)cc3)[C@@]3(Sc4c(C(=O)C(=O)OC)c5ccccc5n4C3=O)[C@H]2C(=O)OC)c2ccc(Cl)cc21
cell viability ([4]; MCF7, at 25 μg/mL): about 80%

Compound: CCCN1C(=O)[C@]2(N[C@@H](c3ccccc3)[C@@]3(Sc4c(C(=O)C(=O)OC)c5ccccc5n4C3=O)[C@H]2C(=O)OC)c2ccc(Cl)cc21
cell viability ([4]; MCF7, at 200 μg/mL): 80%

Compound: CN1C[C@H](c2cccc(F)c2)[C@@H](C(=O)C2CC[C@H]3[C@@H]4CC=C5C[C@@H](O)CC[C@]5(C)[C@H]4CC[C@]23C)[C@]12C(=O)Nc1ccccc12 (some centres unmarked) [23 (R = 3-FC6H4)]
IC50 (MCF7 (breast) [5]): 4.6 ± 0.7 µM

Compound: O=C(c1nc2ccccc2[nH]1)[C@H]1[C@H](c2cccs2)C2CC3CCCCC3N2[C@]12C(=O)Nc1ccc(Cl)cc12 (some centres unmarked) [39 (R = 2-thienyl)]
IC50 (MDA-MB-231): 3.8 ± 0.205 µM
IC50 (PC3): 4.314 ± 0.036 µM

Compound: O=C(/C=C/c1ccc(Cl)cc1Cl)[C@H]1[C@H](c2ccc(Cl)cc2Cl)C2CSCN2[C@]12C(=O)Nc1ccccc12 (some centres unmarked) [49 (R = R^1 = 2,4-Cl2C6H3, R^2 = H)]
IC50 (HCT116 (colon) [6]): 2 ± 0.6 µM
IC50 (HepG2 (liver) [7]): 0.85 ± 0.2 µM
IC50 (PC-3 (prostate)): 1.8 ± 0.3 µM
IC50 (VERO-B (normal) cells): 5 ± 0.245 µM

Compound: O=C(c1c[nH]c2ccccc12)C1C(c2ccc(C(F)(F)F)cc2)C2CSCN2C12C(=O)Nc1ccccc12 (centres unmarked) [51 (R = 4-F3CC6H4)]
IC50 (HCT116 (colon) [8]): 7 ± 0.27 µM
IC50 (HepG2 (liver) [9]): 5.5 ± 0.2 µM
IC50 [10]: 6 ± 0.23 µM

Compound: O=C1/C(=C/c2ccccc2)CCC[C@@]12[C@H](c1ccccc1)[C@H]1C[C@@H]3CCCC[C@@H]3N1[C@]21C(=O)Nc2cc(Cl)ccc21 [70 (R = Ph, R’ = 6-Cl)]
IC50 (PC3 (prostate)): 3.7 ± 1 µM
